According to patent US5187174A, “6'-deoxy-6'-halo-neplanocin A and its production” (Asahi Kasei Kogyo Kabushiki Kaisha, priority 1989, dated 1993):
Values after ≈ are worked out from the molar mass of the structure shown.

Tests used:
L5178Y cells = assay: Growth inhibition activity against L5178Y cells; format: cell-based; details: Mus musculus, 48 hours, 37° C.
Procedure: 1. Growth inhibition activity against L5178Y cells:
A solution of each test compound is prepared by dissolving or suspending the compound in RRMI 1640 medium containing 10% bovine serum by ultrasonication. A cell suspension of L5178Y cells, 1.1×10^4 cells/ml, each suspension having a volume of 1.8 ml, is added to each test tube. A solution (0.2 ml) of the test compound hereinabove is added thereto and the medium is tightly sealed and incubated at 37° C. for 48 hours. After incubation, the number of cells is measured using a Coulter counter and the growth ratio of the cells is determined.

[1] = Resistance to adenosine deaminase; format: in vitro ADME, calf; details: bovine, pH 7.2, 25° C., read-out: Remaining Amount (%); for remaining at 0.5 h, 500 µM: 30 min.
Procedure: A solution 0.5 mM of each test sample is prepared by dissolving the test sample in 0.05M Tris-HCl buffer (pH 7.2). Adenosine deaminase (calf intestine, 400 U/ml glycerin, Boehringer 102091) is diluted ten times with 0.05M Tris-HCl buffer (pH 7.2) to prepare an adenosine deaminase solution.
0.5 ml of each sample solution is mixed with 10 μl of adenosine deaminase solution. The mixtures are allowed to stand in a water bath at 25° C., and 4 μl samples thereof are pipetted off after 1, 10, 20 and 30 minutes. The remaining sample is measured by HPLC under the following conditions:
Column: Licrosorb RP-18-5
Elution solvent: Control; 15% methanol
Elution speed: 1.0 ml/min.

adenosine deaminase = details: in words; thought to occur, Ref. 1; cited from earlier work
cells = details: in words; Ref. 1; cited from earlier work

| Compound | remaining at 10 min, 500 µM [1] | remaining at 20 min, 500 µM [1] | remaining at 0.5 h, 500 µM [1] | IC50 (L5178Y cells) | conversion by adenosine deaminase in vivo (adenosine deaminase) | cytotoxic activity in vitro (cells) |
| --- | --- | --- | --- | --- | --- | --- |
| Nc1ncnc2c1ncn2C1C=C(CBr)C(O)C1O (stereo not shown) [Compound (1) X = Br, 6'-deoxy-6'-bromoneplanocin A] | 98% | 97% | 97% | 0.2 µg/mL (≈ 0.613 µM) |  |  |
| Nc1ncnc2c1ncn2C1C=C(CCl)C(O)C1O (stereo not shown) [Compound (1) X = Cl, 6'-deoxy-6'-chloroneplanocin A] | 101% | 99% | 102% | 0.3 µg/mL (≈ 1.06 µM) |  |  |

Further lines, with some results ahead:

| remaining at 10 min, 500 µM [1] | remaining at 20 min, 500 µM [1] | remaining at 0.5 h, 500 µM [1] | Compound | IC50 (L5178Y cells) | conversion by adenosine deaminase in vivo (adenosine deaminase) | cytotoxic activity in vitro (cells) |
| --- | --- | --- | --- | --- | --- | --- |
| 99% | 98% | 98% | Nc1ncnc2c1ncn2C1C=C(CF)C(O)C1O (stereo not shown) [Compound (1) X = F, 6'-deoxy-6'-fluoroneplanocin A] | 1.1 µg/mL (≈ 4.15 µM) |  |  |
| 97% | 96% | 96% | Nc1ncnc2c1ncn2C1C=C(CI)C(O)C1O (stereo not shown) [Compound (1) X = I, 6'-deoxy-6'-iodoneplanocin A] | 0.4 µg/mL (≈ 1.07 µM) |  |  |
| 6% | 0.4% | 0% | Nc1ncnc2c1ncn2[C@@H]1C=C(CO)[C@@H](O)[C@H]1O [Neplanocin A] | 0.2 µg/mL (≈ 0.76 µM) | rapid conversion to an inert deamination-type compound (neplanocin D) | has cytotoxic activity in vitro |
